Measured values taken from ChEMBL document CHEMBL5338704, “Discovery of novel phenylhydrazone-based oxindole-thiolazoles as potent antibacterial agents toward Pseudomonas aeruginosa” (Eur J Med Chem, 2022).
Converted amounts (≈) assume the structure as drawn. The source made the active and inactive calls. No cut-off for these calls is given here.

Tests used:
[1] = test system: Pseudomonas aeruginosa; experiment: Antibacterial activity against Pseudomonas aeruginosa assessed as […] inactivation at 0.5 to 8 times MIC by alamar blue staining based analysis; type: functional, organism-based
[2] = test system: Klebsiella pneumoniae; experiment: Antibacterial activity against Klebsiella pneumoniae assessed as inhibition of bacterial growth by micro-broth dilution assay; type: functional
[3] = test system: Staphylococcus aureus; experiment: Antibacterial activity against Staphylococcus aureus ATCC 29213 assessed as inhibition of bacterial growth by micro-broth dilution assay; type: functional
[4] = test system: Escherichia coli; experiment: Antibacterial activity against Escherichia coli assessed as inhibition of bacterial growth by micro-broth dilution assay; type: functional
[5] = test system: Cell membrane; experiment: Induction of inner membrane damage in Pseudomonas aeruginosa incubated for 6 hrs by Calcein AM dye based fluorescence based assay; type: subcellular
[6] = test system: Staphylococcus aureus; experiment: Antibacterial activity against methicillin resistant Staphylococcus aureus assessed as inhibition of bacterial growth by micro-broth dilution assay; type: functional
[7] = test system: Enterococcus faecalis; experiment: Antibacterial activity against Enterococcus faecalis assessed as inhibition of bacterial growth by micro-broth dilution assay; type: functional
[8] = test system: DNA; experiment: Binding affinity to Pseudomonas aeruginosa DNA; type: nucleic-acid assay
[9] = test system: Pseudomonas aeruginosa; experiment: Antibacterial activity against Pseudomonas aeruginosa ATCC 27853 assessed as inhibition of bacterial growth at 1 times MIC measured upto 14 hrs; type: functional, organism-based
[10] = test system: Staphylococcus aureus; experiment: Antibacterial activity against Staphylococcus aureus ATCC 25923 assessed as inhibition of bacterial growth by micro-broth dilution assay; type: functional
[11] = test system: Pseudomonas aeruginosa; experiment: Antibacterial activity against Pseudomonas aeruginosa assessed as reduction in LDH activity at 0.5 to 8 times MIC; type: functional, organism-based
[12] = test system: Pseudomonas aeruginosa; experiment: Antibacterial activity against Pseudomonas aeruginosa ATCC 27853 assessed as inhibition of bacterial growth measured after 6 hrs; type: functional, organism-based
[13] = Hemolytic activity in RBC (unknown origin) assessed as hemolysis; type: toxicity, cell-based, Erythrocyte; conditions: red blood cells (erythrocytes)
[14] = test system: Pseudomonas aeruginosa; experiment: Inhibition of biofilm formation in Pseudomonas aeruginosa assessed as removal of mature biofilm by crystal violet staining based analysis; type: functional, organism-based; conditions: dose 0.5-8 µg/ml
[15] = test system: Pseudomonas aeruginosa; experiment: Induction of resistance development in Pseudomonas aeruginosa ATCC 27853 assessed as fold increase in MIC treated over 30 serial passages; type: functional
[16] = test system: Cell membrane; experiment: Induction of inner membrane damage in Pseudomonas aeruginosa assessed as decrease in green fluorescence cells at 0.5 to 8 times MIC incubated for 6 hrs by Calcein AM dye based fluorescence based assay; type: subcellular
[17] = test system: Cell membrane; experiment: Induction of inner membrane damage in Pseudomonas aeruginosa assessed as increase in red fluorescence cells at 0.5 to 8 times MIC incubated for 6 hrs by Calcein AM dye based fluorescence based assay; type: subcellular
[18] = test system: DNA; experiment: Binding affinity to Pseudomonas aeruginosa DNA assessed as reduction in acridine orange-DNA complex formation by competitive binding assay; type: nucleic-acid assay
[19] = test system: Pseudomonas aeruginosa; experiment: Antibacterial activity against Pseudomonas aeruginosa ATCC 27853 assessed as inhibition of bacterial growth by micro-broth dilution assay; type: functional
[20] = test system: Acinetobacter baumannii; experiment: Antibacterial activity against Acinetobacter baumannii assessed as inhibition of bacterial growth by micro-broth dilution assay; type: functional
[21] = test system: Cell membrane; experiment: Induction of outer membrane permeabilization in Pseudomonas aeruginosa assessed as increase in fluorescence intensity by NPN-dye based fluorescence analysis; type: subcellular; conditions: dose 0.5-8 µg/ml
[22] = test system: Pseudomonas aeruginosa; experiment: Induction of resistance development in Pseudomonas aeruginosa ATCC 27853 treated over 30 serial passages; type: functional, organism-based
[23] = test system: Cell membrane; experiment: Induction of cytoplasmic membrane depolarization in Pseudomonas aeruginosa assessed as increase in fluorescence intensity at 0.5 to 4 times MIC by DiSC35 dye based fluorescence analysis; type: subcellular; conditions: time 30.0 min, TDE = time-dependent effect
[24] = test system: Pseudomonas aeruginosa; experiment: Inhibition of biofilm formation in Pseudomonas aeruginosa by crystal violet staining based analysis; type: functional, organism-based; conditions: dose 0.5-8 µg/ml
[25] = test system: Cell membrane; experiment: Induction of cell membrane damage in Pseudomonas aeruginosa assessed as increase in nucleic acid leakage at 0.5 to 8 times MIC; type: subcellular
[26] = test system: Escherichia coli; experiment: Antibacterial activity against Escherichia coli ATCC 25922 assessed as inhibition of bacterial growth by micro-broth dilution assay; type: functional
[27] = test system: Pseudomonas aeruginosa; experiment: Antibacterial activity against Pseudomonas aeruginosa assessed as inhibition of bacterial growth by micro-broth dilution assay; type: functional
[28] = test system: Cell membrane; experiment: Induction of cytoplasmic membrane depolarization in Pseudomonas aeruginosa assessed as increase in fluorescence intensity MIC by DiSC35 dye based fluorescence analysis; type: subcellular
[29] = test system: Pseudomonas aeruginosa; experiment: Antibacterial activity against Pseudomonas aeruginosa assessed as reduction in LDH activity at 8 times MIC; type: functional; parameters: scale not given: the % may be the effect or the level left
[30] = Selectivity index, ratio of HC50 for hemolytic activity in RBC (unknown origin) assessed as hemolysis to MIC for antibacterial activity against Pseudomonas aeruginosa assessed as inhibition of bacterial growth by micro-broth dilution assay; type: toxicity; conditions: red blood cells (erythrocytes)
[31] = test system: Cell membrane; experiment: Induction of outer membrane permeabilization in Pseudomonas aeruginosa assessed as increase in fluorescence intensity at 0.5 to 8 microg/ml by NPN-dye based fluorescence analysis; conditions: dose 0.5-8 µg/ml
[32] = test system: Pseudomonas aeruginosa; experiment: Potency index, ratio of norfloxacin MIC to test compound MIC for antibacterial activity against Pseudomonas aeruginosa assessed as inhibition of bacterial growth by micro-broth dilution assay; type: functional
[33] = test system: Staphylococcus aureus; experiment: Antibacterial activity against Staphylococcus aureus assessed as inhibition of bacterial growth by micro-broth dilution assay; type: functional
[34] = test system: Pseudomonas aeruginosa; experiment: Induction of intracellular ROS accumulation in Pseudomonas aeruginosa assessed increase in fluorescence intensity; type: functional, organism-based
[35] = test system: Pseudomonas aeruginosa; experiment: Inhibition of biofilm formation in Pseudomonas aeruginosa at 0.5 to 8 microg/ml by crystal violet staining based analysis; type: functional; conditions: dose 0.5-8 µg/ml; at 0.5 to 8 µg/mL
[36] = test system: Cell membrane; experiment: Induction of cell membrane damage in Pseudomonas aeruginosa assessed as increase in protein leakage; type: subcellular
[37] = test system: Pseudomonas aeruginosa; experiment: Induction of oxidative stress in Pseudomonas aeruginosa assessed as decrease in GSH activity at 0.5 to 8 times MIC by Ellman's assay; type: functional, organism-based

With `Cn1ccnc1SCC(O)CN1C(=O)/C(=N\Nc2ccc(C(=O)O)cc2)c2ccccc21` (configuration not stated) as the compound, how does the Activity [1] read?
Its Activity is “Active”.

What about the MIC [2] of the same compound?
Its MIC is 2 µg/mL (≈ 4.43 µM).

What about the MIC [3] of the same compound?
Its MIC is 16 µg/mL (≈ 35.4 µM).

And the MIC [4]?
The MIC was 32 µg/mL (≈ 70.9 µM).

And the Activity [5]?
The Activity was “Dose-Dependent Effect”.

What about the MIC [6] of the same compound?
Its MIC is 8 µg/mL (≈ 17.7 µM).

And the MIC [7]?
Its MIC is 4 µg/mL (≈ 8.86 µM).

And the Activity [8]?
The Activity was “Active”.

What about the Activity [9] of the same compound?
Its Activity is “Active”.

And the MIC [10]?
Its MIC is 8 µg/mL (≈ 17.7 µM).

And the Activity [11]?
The Activity was “Active”.

And the Activity [12]?
Its Activity is “Active”.

And the HC50 [13]?
The HC50 was over 512 µg/mL.

And the inhibition [14]?
The inhibition was “Dose-Dependent Effect”.

What about the “fold change (FC)” value [15] of the same compound?
Its value is 32.

And the Activity [16]?
Its Activity is “Active”.

What about the Activity [17] of the same compound?
The Activity was “Active”.

And the Activity [18]?
Its Activity is “Active”.

What about the MIC [19] of the same compound?
Its MIC is 8 µg/mL (≈ 17.7 µM).

What about the MIC [20] of the same compound?
The MIC was 32 µg/mL (≈ 70.9 µM).

And the Activity [21]?
Its Activity is “Dose-Dependent Effect”.

And the Activity [22]?
The Activity was “Active”.

What about the Activity [23] of the same compound?
Its Activity is “Tde”.

And the inhibition [24]?
Its inhibition is “Dose-Dependent Effect”.

What about the Activity [25] of the same compound?
Its Activity is “Active”.

What about the MIC [26] of the same compound?
The MIC was 4 µg/mL (≈ 8.86 µM).

What about the MIC [27] of the same compound?
Its MIC is 1 µg/mL (≈ 2.21 µM).

And the Activity [28]?
The Activity was “Dose-Dependent Effect”.

What about the Activity [29] of the same compound?
The Activity was under 15%.

What about the selectivity ratio [30] of the same compound?
The selectivity ratio was over 512.

What about the Activity [31] of the same compound?
Its Activity is “Active”.

What about the Ratio [32] of the same compound?
The Ratio was 8.

What about the MIC [33] of the same compound?
The MIC was 8 µg/mL (≈ 17.7 µM).

What about the Activity [34] of the same compound?
The Activity was “Dose-Dependent Effect”.

What about the “inhibition (INH)” value [35] of the same compound?
Its value is 15%.

And the Activity [36]?
The Activity was “Dose-Dependent Effect”.

And the Activity [37]?
Its Activity is “Active”.
